# Measurements reported in ChEMBL document CHEMBL1140018, “Synthesis and structure-activity relationship of imidazo(1,2-a)thieno(3,2-e)pyrazines as IKK-beta inhibitors” (Bioorg Med Chem Lett, 2007).
# Columns and labels:
# [1] = biological target: T1, Inhibitor of nuclear factor kappa-B kinase subunit alpha (Homo sapiens, UniProt O15111)
# T1 sequence (O15111 whole entry): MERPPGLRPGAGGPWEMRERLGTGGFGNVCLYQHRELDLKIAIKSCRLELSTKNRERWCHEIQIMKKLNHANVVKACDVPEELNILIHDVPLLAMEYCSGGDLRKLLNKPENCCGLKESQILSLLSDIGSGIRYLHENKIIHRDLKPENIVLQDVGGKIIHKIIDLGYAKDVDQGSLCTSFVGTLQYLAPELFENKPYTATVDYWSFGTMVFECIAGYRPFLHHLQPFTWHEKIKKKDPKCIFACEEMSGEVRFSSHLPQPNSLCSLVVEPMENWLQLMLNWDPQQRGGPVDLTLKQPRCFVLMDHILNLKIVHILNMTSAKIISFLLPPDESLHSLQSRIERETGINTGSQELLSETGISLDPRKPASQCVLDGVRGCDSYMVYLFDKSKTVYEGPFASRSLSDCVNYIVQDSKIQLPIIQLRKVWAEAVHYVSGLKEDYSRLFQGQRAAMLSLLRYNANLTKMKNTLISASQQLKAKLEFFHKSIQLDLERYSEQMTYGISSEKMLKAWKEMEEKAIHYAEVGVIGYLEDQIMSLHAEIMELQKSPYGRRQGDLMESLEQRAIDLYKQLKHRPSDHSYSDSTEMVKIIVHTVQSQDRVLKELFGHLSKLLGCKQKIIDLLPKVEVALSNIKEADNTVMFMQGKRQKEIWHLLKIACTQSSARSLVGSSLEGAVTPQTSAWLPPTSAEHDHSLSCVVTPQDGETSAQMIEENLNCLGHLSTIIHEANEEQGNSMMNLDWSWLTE
# [2] = biological target: T2, Inhibitor of nuclear factor kappa-B kinase subunit beta (Homo sapiens, UniProt O14920)
# T2 sequence (O14920 whole entry): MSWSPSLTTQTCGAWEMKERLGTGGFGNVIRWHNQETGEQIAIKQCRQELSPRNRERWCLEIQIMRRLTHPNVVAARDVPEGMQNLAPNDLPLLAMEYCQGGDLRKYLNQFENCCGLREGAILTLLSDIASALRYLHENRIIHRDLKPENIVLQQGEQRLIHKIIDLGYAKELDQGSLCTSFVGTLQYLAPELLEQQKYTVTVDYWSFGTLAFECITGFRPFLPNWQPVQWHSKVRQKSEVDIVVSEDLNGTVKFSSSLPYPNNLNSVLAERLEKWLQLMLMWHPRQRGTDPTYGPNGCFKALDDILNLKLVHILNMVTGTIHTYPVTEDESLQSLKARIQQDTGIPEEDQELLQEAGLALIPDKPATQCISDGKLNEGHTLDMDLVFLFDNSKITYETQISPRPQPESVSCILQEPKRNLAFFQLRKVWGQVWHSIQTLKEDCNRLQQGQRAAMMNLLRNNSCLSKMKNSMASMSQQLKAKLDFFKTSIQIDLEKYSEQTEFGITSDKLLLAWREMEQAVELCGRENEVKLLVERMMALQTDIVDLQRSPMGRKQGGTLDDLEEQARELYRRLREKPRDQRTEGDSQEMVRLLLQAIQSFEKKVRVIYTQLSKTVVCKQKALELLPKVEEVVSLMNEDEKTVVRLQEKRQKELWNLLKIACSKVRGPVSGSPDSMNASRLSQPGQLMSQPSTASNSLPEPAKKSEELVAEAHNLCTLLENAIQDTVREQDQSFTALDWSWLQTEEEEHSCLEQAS
# [3] = Cytotoxicity against Jurkat cells by Alamar blue assay; details: human
# Jurkat = test: Inhibition of TNF-alpha-induced response in Jurkat cells; details: Homo sapiens
# Liver microsomes = test: Metabolic stability in human liver microsomes; format: ADME, Microsome
# Liver = test: Metabolic stability in mouse liver microsomes; format: ADME, Microsome
# PBMC = test: Inhibition of LPS-induced TNFalpha production in PBMC; format: functional, cell-based; details: Homo sapiens
# [4] = Tmax in mouse at 10 mg/kg, po; format: ADME, organism-based; set-up: dose 10 mg/kg, route oral; details: in vivo
SMILES,IC50 [1],IC50 [2],EC50 (Jurkat),Stability (Liver microsomes),Stability (Liver),Tmax [4],CC50 ([3]; Jurkat cells),EC50 (PBMC),CC50 ([3]; jurkat)
Cc1cnc2c(NCCN)nc3cc(-c4cccnc4)sc3n12,2.57 µM,0.14 µM,29.5 µM,–,–,–,49 µM,–,–
COc1nc2cc(-c3ccccc3)sc2n2c(C)cnc12,> 100 µM,> 1 µM,> 100 µM,–,–,–,> 100 µM,–,–
CNc1nc2cc(-c3cccc(CC(N)C(=O)O)c3)sc2n2c(C)cnc12 (stereo unspecified),1.26 µM,0.013 µM,> 100 µM,–,–,–,> 100 µM,–,–
COc1ccccc1-c1cc2nc(NCCN)c3ncc(C)n3c2s1,13 µM,0.28 µM,> 100 µM,–,–,–,3.5 µM,–,–
Cc1cnc2c(NCCN)nc3cc(-c4ccccc4CO)sc3n12,4.4 µM,0.13 µM,15.6 µM,–,–,–,> 100 µM,–,–
Cc1cnc2c(NCCN)nc3ccsc3n12,12.1 µM,0.17 µM,> 100 µM,–,–,–,> 100 µM,–,–
CNc1nc2cc(-c3cccc(C(N)=O)c3)sc2n2c(C)cnc12,> 30 µM,0.29 µM,35.6 µM,–,–,–,> 100 µM,–,–
Cc1cnc2c(NCCN)nc3cc(-c4ccc(CO)cc4)sc3n12,2.33 µM,0.023 µM,40.9 µM,–,–,–,14 µM,–,–
CNc1nc2cc(C)sc2n2c(C)cnc12,7.83 µM,0.49 µM,> 30 µM,–,–,–,> 100 µM,–,–
CC(=O)NCCNc1nc2cc(-c3ccccc3)sc2n2c(C)cnc12,7.03 µM,0.29 µM,10.2 µM,–,–,–,> 100 µM,–,–
CNc1nc2ccsc2n2c(C)cnc12,4.12 µM,0.52 µM,> 3 µM,–,–,–,> 100 µM,–,–
Cc1cnc2c(NCCN)nc3cc(-c4ccc[nH]4)sc3n12,1.26 µM,0.25 µM,7.96 µM,–,–,–,7.9 µM,–,–
CCNc1nc2cc(-c3ccccc3)sc2n2c(C)cnc12,1.99 µM,0.26 µM,5.73 µM,–,–,–,> 100 µM,–,–
CNc1nc2cc(-c3cccc(C(=O)O)c3)sc2n2c(C)cnc12,14.4 µM,0.19 µM,65.7 µM,–,–,–,> 100 µM,–,–
Cc1cnc2c(NCCO)nc3cc(-c4ccccc4)sc3n12,3.48 µM,0.085 µM,7.17 µM,–,–,–,> 100 µM,–,–
Cc1cnc2c(NCC(N)=O)nc3cc(-c4ccccc4)sc3n12,> 25 µM,0.36 µM,> 100 µM,–,–,–,> 100 µM,–,–
Cc1cnc2c(NCCN)nc3cc(C4=NCN=C4)sc3n12,3.86 µM,0.45 µM,> 100 µM,–,–,–,38 µM,–,–
Cc1cnc2c(NCCN)nc3cc(-c4cn[nH]c4)sc3n12,1.45 µM,0.01 µM,8.02 µM,–,–,–,46 µM,–,–
Cc1cnc2c(NCCNC=O)nc3cc(-c4ccccc4)sc3n12,7.99 µM,0.23 µM,3.16 µM,–,–,–,> 100 µM,–,–
COc1ccc(-c2cc3nc(NCCN)c4ncc(C)n4c3s2)cc1,2.8 µM,0.095 µM,> 30 µM,–,–,–,> 100 µM,–,–
CNc1nc2cc(-c3cccc(CCC(=O)O)c3)sc2n2c(C)cnc12,1.34 µM,< 0.009 µM,4.96 µM,–,–,–,> 100 µM,–,–
Cc1cnc2c(NCCN)nc3cc(-c4ccncc4)sc3n12,2.93 µM,0.27 µM,59.6 µM,–,–,–,> 100 µM,–,–
Cc1cnc2c(N)nc3cc(-c4ccccc4)sc3n12,6.5 µM,0.37 µM,17 µM,–,–,–,> 100 µM,–,–

# The next lines start with results.
IC50 [1],IC50 [2],EC50 (Jurkat),Stability (Liver microsomes),Stability (Liver),Tmax [4],SMILES,CC50 ([3]; Jurkat cells),EC50 (PBMC),CC50 ([3]; jurkat)
0.91 µM,0.021 µM,0.95 µM,–,–,–,Cc1cnc2c(NCCN)nc3cc(-c4cccc(CCO)c4)sc3n12,13 µM,–,–
0.19 µM,0.027 µM,0.69 µM,–,–,–,CNc1nc2cc(-c3cccc(C[C@@H](N)C(N)=O)c3)sc2n2c(C)cnc12,90 µM,–,–
0.44 µM,0.007 µM,0.92 µM,–,–,–,CNc1nc2cc(-c3cccc(CCNS(N)(=O)=O)c3)sc2n2c(C)cnc12,> 100 µM,–,–
1.08 µM,0.051 µM,1.9 µM,–,–,–,CNC(=O)CNCCc1cccc(-c2cc3nc(NC)c4ncc(C)n4c3s2)c1,50 µM,–,–
0.82 µM,0.021 µM,1.97 µM,–,–,–,CNc1nc2cc(-c3cccc(CCNC(C)=O)c3)sc2n2c(C)cnc12,> 100 µM,–,–
0.77 µM,0.038 µM,2.33 µM,–,–,–,CNc1nc2cc(-c3cccc(CNC(C)=O)c3)sc2n2c(C)cnc12,> 100 µM,–,–
0.42 µM,–,0.85 µM,–,–,–,CNCCNc1nc2cc3ccccc3cc2n2c(C)cnc12,–,–,–
0.65 µM,0.045 µM,6.73 µM,–,–,–,CNc1nc2cc(-c3cccc(CCN)c3)sc2n2c(C)cnc12,21 µM,–,–
1.17 µM,0.095 µM,> 30 µM,–,–,–,Cc1cnc2c(NCCN(C)C)nc3cc(-c4ccccc4)sc3n12,> 100 µM,–,–
0.94 µM,0.029 µM,4.53 µM,–,–,–,Cc1cnc2c(NCCN)nc3cc(-c4ccoc4)sc3n12,> 100 µM,–,–
0.17 µM,0.003 µM,0.27 µM,0.035 nmol/mg/min,0.231 nmol/mg/min,1 h,CNc1nc2cc(-c3cccc(CNS(N)(=O)=O)c3)sc2n2c(C)cnc12,> 100 µM,0.095 µM,–
0.69 µM,0.044 µM,29.2 µM,–,–,–,COc1cccc(-c2cc3nc(NCCN)c4ncc(C)n4c3s2)c1,3.5 µM,–,–
1.24 µM,0.19 µM,> 100 µM,–,–,–,Cc1cnc2c(NCCN)nc3cc(-c4ccccn4)sc3n12,13 µM,–,–
0.51 µM,0.023 µM,2.61 µM,–,–,–,CNc1nc2cc(-c3cccc(CNCC(N)=O)c3)sc2n2c(C)cnc12,> 100 µM,–,–
1.21 µM,0.019 µM,0.81 µM,–,–,–,CNc1nc2cc(-c3cccc(CCC(N)=O)c3)sc2n2c(C)cnc12,> 100 µM,–,–
0.45 µM,0.008 µM,2.4 µM,–,–,–,Cc1cnc2c(NCCN)nc3cc(-c4cccc(CO)c4)sc3n12,–,–,7 µM
1.11 µM,0.23 µM,18.6 µM,–,–,–,Cc1cnc2c(NCCN)nc3cc(-c4nccs4)sc3n12,5.9 µM,–,–
0.26 µM,0.014 µM,0.45 µM,–,–,–,CNc1nc2cc(-c3cccc(C[C@H](N)C(N)=O)c3)sc2n2c(C)cnc12,> 100 µM,–,–
